This is an account of results in patent publication US20200115357A1, “LIVER X RECEPTORS (LXR) MODULATORS” (Phenex-FXR GmbH, priority 2017, published 2020).

In assay [1] the target is T1, GST-LXRβ ligand-binding domain (Homo sapiens, UniProt P55055, DUP175-175).
T1 construct: amino acids 156-461; NP009052; made in house; host or cells: E. coli
T1 sequence (P55055 with tags, fused parts or gaps DUP175-175): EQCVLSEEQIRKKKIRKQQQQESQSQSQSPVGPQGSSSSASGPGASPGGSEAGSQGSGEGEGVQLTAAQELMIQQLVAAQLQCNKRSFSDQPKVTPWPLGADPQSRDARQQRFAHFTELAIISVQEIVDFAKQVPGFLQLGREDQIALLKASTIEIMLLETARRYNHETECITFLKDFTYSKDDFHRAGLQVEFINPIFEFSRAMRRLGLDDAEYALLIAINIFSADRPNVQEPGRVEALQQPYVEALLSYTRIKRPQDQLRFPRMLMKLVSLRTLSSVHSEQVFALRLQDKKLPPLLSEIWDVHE
Briefly: TR-FRETβ activity assay (LXRβ-LBD / NCoA3 coactivator peptide, prestimulated with 24(S)-25-epoxycholesterol). On the set-up: key to behavior in FRET assay: ag=agonist; ia=inverse agonist. In kind it is biochemical. Particulars: for EC50: read-out: FRETβ activity range (EC50); for behavior in FRET assay: agonist or inverse agonist. As for the experimental part: The tested compounds were usually dissolved, tested and stored as 20 mM stock solutions in DMSO. […] Sulfonyl acetic acid derivatives are shelf stable as solid at rt for long time as reported by Griesbrecht et al. (Synlett 2010:374) or Faucher et al. (J. Med. Chem. 2004; 47:18). TR-FRETβ Activity Assay Recombinant GST-LXRβ ligand-binding domain (LBD; amino acids 156-461; NP009052; SEQ ID NO:2) was expressed in E. coli and purified via gluthatione-sepharose affinity chromatography. N-terminally biotinylated NCoA3 coactivator peptide (SEQ ID NO:1) was chemically synthesized (Eurogentec). […] Finally, a detection mix was added containing anti GST-Tb cryptate (CisBio; 610SAXLB) and Streptavidin-XL665 (CisBio; 610SAXLB) as fluorescent donor and acceptor, respectively, as well as the coactivator peptide and LXRβ-LBD protein (SEQ ID NO:2). The reaction was mixed thoroughly, equilibrated for 1 h at 4° C. and vicinity of LXRβ and coactivator peptide was detected by measurement of fluorescence in a VictorX4 multiplate reader (PerkinElmer Life Science) using 340 nm as excitation and 615 and 665 nm as emission wavelengths. Assays were performed in triplicates. Final Assay Concentrations of Components: 240 mM KCl, 1 μg/μL BSA, 0.002% Triton-X-100, […] anti GST-Tb cryptate, 2.5 ng/μL Streptavidin-XL665, coactivator peptide (400 nM), LXRβ protein ([…], i.e. 76 nM)

Assay [2] addresses T2, LXRβ full length (FL) (Homo sapiens, UniProt P55055, DUP175-175).
T2 construct: the full length (FL) proteins of LXRα (amino acids 1-447); NP005684; NP009052; expressed in transfected cells; host or cells: HEK293
T2 sequence (P55055 with tags, fused parts or gaps DUP175-175): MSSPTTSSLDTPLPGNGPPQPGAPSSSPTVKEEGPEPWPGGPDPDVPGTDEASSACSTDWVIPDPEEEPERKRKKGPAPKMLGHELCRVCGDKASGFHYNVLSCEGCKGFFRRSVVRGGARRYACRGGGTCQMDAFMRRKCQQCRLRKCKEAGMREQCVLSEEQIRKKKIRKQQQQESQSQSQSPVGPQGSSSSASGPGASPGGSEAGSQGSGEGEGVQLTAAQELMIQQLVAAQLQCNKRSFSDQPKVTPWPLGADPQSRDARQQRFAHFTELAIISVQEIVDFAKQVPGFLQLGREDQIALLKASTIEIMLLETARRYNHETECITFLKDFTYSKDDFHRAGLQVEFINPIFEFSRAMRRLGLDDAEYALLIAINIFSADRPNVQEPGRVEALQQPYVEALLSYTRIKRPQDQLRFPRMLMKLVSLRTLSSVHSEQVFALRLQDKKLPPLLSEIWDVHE
Briefly: LXR Gal4 reporter transient transfection assay (M2H), Gal4β FL. In kind it is cell-based. The conditions noted are these: HEK293 cells; read-out: M2H Gal4β FL activity range (EC50). As for the experimental part:
(§1) The tested compounds were usually dissolved, tested and stored as 20 mM stock solutions in DMSO. Since sulfonyl acetic acid derivatives tend to decarboxylate under these conditions, these stock solutions were prepared, tested and stored as 20 mM DMSO stock solutions containing 100 mM trifluoroacetic acid (5 equivalents). Sulfonyl acetic acid derivatives are shelf stable as solid at rt for long time as reported by Griesbrecht et al. (Synlett 2010:374) or Faucher et al. (J. Med. Chem. 2004; 47:18).
(§2) LXR Gal4 Reporter Transient Transfection Assays
(§3) LXRα and LXRβ activity status was determined via detection of interaction with coactivator and corepressor proteins in mammalian two-hybrid experiments (M2H). For this, via transient transfection the full length (FL) proteins of LXRα (amino acids 1-447; NP005684; SEQ ID NO:7) or LXRβ-(amino acids 1-461; NP009052; SEQ ID NO:8) or the ligand-binding domains (LBD) of LXRα (amino acids 155-447 SEQ ID NO:3) or LXRβ (amino acids 156-461; SEQ ID NO:4) were expressed from pCMV-AD (Stratagene) as fusions to the transcriptional activation domain of NFkB. As cofactors, domains of either the steroid receptor coactivator 1 (SRC1; amino acids 552-887; SEQ ID NO:5) or of the corepressor NCoR (amino acids 1903-2312 SEQ ID NO:6) were expressed as fusions to the DNA binding domain of the yeast transcription factor GAL4 (from pCMV-BD; Stratagene). Interaction was monitored via activation of a coexpressed Firefly Luciferase Reporter gene under control of a promoter containing repetitive GAL4 response elements (vector pFRLuc; Stratagene). Transfection efficiency was controlled via cotransfection of constitutively active pRL-CMV Renilla reniformis luciferase reporter (Promega). HEK293 cells were grown in minimum essential medium (MEM) with 2 mM L-glutamine and Earle's balanced salt solution supplemented with 8.3% fetal bovine serum, 0.1 mM non-essential amino acids, 1 mM sodium pyruvate, at 37° C. in 5% CO2. 3.5×10^4 cells/well were plated in 96-well cell culture plates in growth medium supplemented with 8.3% fetal bovine serum for 16-20 h to ˜90% confluency. For transfection, medium was taken off and LXR and cofactor expressing plasmids as well as the reporter plasmids are added in 30 μL OPTIMEM/well including polyethylene-imine (PEI) as vehicle. Typical amounts of plasmids transfected/well: pCMV-AD-LXR (5 ng), pCMV-BD-cofactor (5 ng), pFR-Luc (100 ng), pRL-CMV (0.5 ng). Compound stocks were prepared in DMSO, prediluted in MEM to a total volume of 120 μL, and added 4 h after addition of the transfection mixture (final vehicle concentration not exceeding 0.2%). Cells were incubated for additional 16 h, lysed for 10 min in 1× Passive Lysis Buffer (Promega) and Firefly and Renilla luciferase activities were measured sequentially in the same cell extract using buffers containing D-luciferine and coelenterazine, respectively. Measurements of luminescence were done in a BMG-Iuminometer.

Assay [3] deals with T3, LXRα full length (FL) (Homo sapiens, UniProt Q13133).
T3 construct: the full length (FL) proteins of LXRα (amino acids 1-447); NP005684; expressed in transfected cells; host or cells: HEK293
T3 sequence (Q13133 1-447): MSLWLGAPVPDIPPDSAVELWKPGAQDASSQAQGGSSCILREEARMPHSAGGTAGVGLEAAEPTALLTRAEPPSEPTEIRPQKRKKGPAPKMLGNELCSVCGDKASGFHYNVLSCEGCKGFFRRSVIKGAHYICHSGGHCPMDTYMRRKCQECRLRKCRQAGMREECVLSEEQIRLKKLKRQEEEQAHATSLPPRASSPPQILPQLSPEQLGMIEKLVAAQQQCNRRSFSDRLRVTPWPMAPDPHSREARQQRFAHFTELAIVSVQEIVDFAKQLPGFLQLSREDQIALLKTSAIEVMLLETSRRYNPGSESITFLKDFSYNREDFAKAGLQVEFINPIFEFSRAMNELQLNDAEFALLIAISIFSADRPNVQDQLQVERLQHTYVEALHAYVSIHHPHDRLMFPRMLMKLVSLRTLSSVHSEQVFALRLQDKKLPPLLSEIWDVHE
Briefly: LXR Gal4 reporter transient transfection assay (M2H), Gal4α FL. It counts as cell-based. Particulars: HEK293 cells; read-out: M2H Gal4α FL activity range (EC50). As for the experimental part: as §1, §2, §3

The mark [4] stands for this setting: 1 μM 24(S)-25-epoxycholesterol as prestimulating agonist.

Turning to `Cc1sc2ccccc2c1S(=O)(=O)N(Cc1ccc(-c2cccc(C(C)(C)C(=O)O)c2)cc1)Cc1ccc(C(F)(F)F)o1` [10/18], the EC50 in assay [1] (setting [4]), in assay [2] and in assay [3] was < 0.1 µM each time. The “behavior in FRET assay” value in assay [1] is on record as “ia”.
As to `COc1ccc2cccnc2c1S(=O)(=O)N(Cc1ccc(-c2cccc(C(C)(C)C(=O)O)c2)cc1)Cc1ccc(C(F)(F)F)o1` [10/19], the figures for the EC50 in assay [1] (setting [4]), in assay [2] and in assay [3] were 0.1 to 1 µM, < 0.1 µM and < 0.1 µM, respectively. In assay [1], the “behavior in FRET assay” value is “ag”.
In the case of `Cc1nn2cccnc2c1S(=O)(=O)N(Cc1ccc(-c2cccc(C(C)(C)C(=O)O)c2)cc1)Cc1ccc(C(F)(F)F)o1` [10/20], the concentration giving a half-maximal response (EC50) in assay [1] (setting [4]) is 0.1 to 1 µM; in assay [2], < 0.1 µM; in assay [3], 0.1 to 1 µM. For the same compound, the “behavior in FRET assay” value in assay [1] is “ag”.
Consider `COc1cccc(CN(Cc2ccc(-c3cccc(S(=O)(=O)CC(=O)O)c3)cc2)S(=O)(=O)c2c(C)cc(C)cc2C)c1` [11/3], for which the EC50 is > 10 µM in assay [1] (setting [4]), 1 to 10 µM in assay [2] and 1 to 10 µM in assay [3]. Further, the “behavior in FRET assay” value in assay [1] is reported as “ia”.
In the case of `Cc1cc(C)c(S(=O)(=O)N(Cc2ccc(-c3cccc(S(=O)(=O)CC(=O)O)c3)cc2)Cc2ccc(F)c(C)c2)c(C)c1` [11/5], the 50% effective concentration (EC50) in assay [1] (setting [4]) is > 10 µM; in assay [2] it was 0.1 to 1 µM; in assay [3], 1 to 10 µM. In assay [1], the “behavior in FRET assay” value is “ia”.
As for `Cc1cc(C)c(S(=O)(=O)N(Cc2ccc(-c3cccc(S(=O)(=O)CC(=O)O)c3)cc2)Cc2c(F)cccc2Cl)c(C)c1` [11/6], the figures for the EC50 in assay [1] (setting [4]), in assay [2] and in assay [3] were 0.1 to 1 µM, < 0.1 µM and 0.1 to 1 µM, respectively. Further, the “behavior in FRET assay” value in assay [1] was “ag”.
For `Cc1cc(C)c(S(=O)(=O)N(Cc2ccc(-c3cccc(S(=O)(=O)CC(=O)O)c3)cc2)Cc2cncc(C(F)(F)F)c2)c(C)c1` [11/9], the EC50 in assay [1] (setting [4]), in assay [2] and in assay [3] was 1 to 10 µM in each case. Also, the “behavior in FRET assay” value in assay [1] is recorded as “ia”.
Regarding `Cc1cc(C)c(S(=O)(=O)N(Cc2ccc(-c3cccc(S(=O)(=O)CC(=O)O)c3)cc2)Cc2csc(C(F)(F)F)c2)c(C)c1` [11/10], the EC50 in assay [1] (setting [4]), in assay [2] and in assay [3] was 1 to 10 µM each time. Further, the “behavior in FRET assay” value in assay [1] was “ia”.
With `Cc1cc(C)c(S(=O)(=O)N(Cc2ccc(-c3cccc(S(=O)(=O)CC(=O)O)c3)cc2)Cc2ccc(F)cc2Cl)c(C)c1` [11/11], the EC50 was in the range of 0.1 to 1 µM in assay [1] (setting [4]), 0.1 to 1 µM in assay [2] and 1 to 10 µM in assay [3]. For the same compound, in assay [1], the “behavior in FRET assay” value is listed as “ag”.
Regarding `Cc1cc(C)c(S(=O)(=O)N(Cc2ccc(-c3cccc(S(=O)(=O)CC(=O)O)c3)cc2)Cc2ccccc2C(F)(F)F)c(C)c1` [11/12], the results for the EC50 in assay [1] (setting [4]), in assay [2] and in assay [3] were 0.1 to 1 µM, < 0.1 µM and 0.1 to 1 µM, respectively. For the same compound, the “behavior in FRET assay” value in assay [1] was “ag”.
As for `Cc1cc(C)c(S(=O)(=O)N(Cc2ccc(-c3cccc(S(=O)(=O)CC(=O)O)c3)cc2)Cc2cccc(OC(F)F)c2)c(C)c1` [11/15], the EC50 in assay [1] (setting [4]) is 1 to 10 µM; in assay [2] it was 0.1 to 1 µM; in assay [3], 1 to 10 µM. Also, the “behavior in FRET assay” value in assay [1] is reported as “ia”.
In the case of `Cc1cc(C)c(S(=O)(=O)N(Cc2ccc(-c3cccc(S(=O)(=O)CC(=O)O)c3)cc2)Cc2cccc(Cl)c2)c(C)c1` [11/16], the “FRETβ activity range (EC50)” value in assay [1] (setting [4]) is “inactive”. Moreover, the EC50 lay within 0.1 to 1 µM in assay [2] and 1 to 10 µM in assay [3].
On to `Cc1cccc(C)c1S(=O)(=O)N(Cc1ccc(-c2cccc(S(=O)(=O)CC(=O)O)c2)cc1)Cc1ccc(C(F)(F)F)o1` [14/2], for which the EC50 lay within 1 to 10 µM in assay [1] (setting [4]), 0.1 to 1 µM in assay [2] and 1 to 10 µM in assay [3]. Further, the “behavior in FRET assay” value in assay [1] is “ia”.
On to `Cc1ccc2ccccc2c1S(=O)(=O)N(Cc1ccc(-c2cccc(C(C)(C)C(=O)O)c2)cc1)C1CCc2ccc(C(F)(F)F)cc21` (centres unmarked) [17/2], for which the EC50 in assay [1] (setting [4]) was 0.1 to 1 µM; in assay [2] it was < 0.1 µM; in assay [3], < 0.1 µM. Besides, the “behavior in FRET assay” value in assay [1] is recorded as “ia”.
On to `Cc1cc(C(F)(F)F)oc1CN(Cc1ccc(-c2cccc(C(C)(C)C(=O)O)c2)cc1)S(=O)(=O)c1c(C)ccc2ccccc12` [17/3], for which the EC50 in assay [1] (setting [4]), in assay [2] and in assay [3] was < 0.1 µM each time. Also, the “behavior in FRET assay” value in assay [1] is “ia”.
